The values below come from US9492425B2 (priority 2008, dated 2016).

A short description of series [1]: Stability study (80° C., 40° C./75 RH %, light; XRPD after 7 days). The note with it: 40° C./75 RH % for 7 days.
Method: Sample stability was tested at 80° C. for 7 days and at 40° C./75 RH % for 7 days. Observations such as color change were noted after 7 days and XRPD of samples were taken after 7 days to investigate any solid form change.
Series [2] can be described thus: Solubility in different organic solvents (aliquot addition until dissolution). In kind it is physicochemical. The method, then: Solubility in different organic solvents was measured using the following protocol. Approximately 25 mg portions of genistein and crystalline genistein sodium dihydrate salt were placed in 48 different vials, separately. 5 volume aliquots of each solvent were added exclusively to a vial. Between each addition, the mixture was checked for dissolution and if no dissolution was apparent, the procedure was continued until dissolution was observed or when 50 volumes had been added.

Series [3] can be described thus: Gravimetric vapor sorption (GVS). Type of series: physicochemical. The note with it: for maximum of water adsorbed (GVS): 0-90% RH sorption cycle; for moisture change (GVS): between 20 and 70 RH % (typical working range of material). The method, then:
Approximately 15 mg of sample was placed into a wire-mesh vapor sorption balance pan and loaded into an SMS intrinsic vapor sorption balance supplied (Surface Measurement Systems Instruments). The sample was then dried by maintaining a 0% humidity environment until no further weight change was recorded. Subsequently, the sample was then subjected to a ramping profile from 0-90% RH at 10% RH increments, maintaining the sample at each step until equilibration had been attained (99.5% step completion). Upon reaching equilibration, the % RH within the apparatus was ramped to the next step and the equilibration procedure repeated. After completion of the sorption cycle, the sample was then dried using the same procedure. The weight change during the sorption/desorption cycles were then monitored, allowing for the hygroscopic nature of the sample to be determined.

For series [4] the following is noted: male, Sprague-Dawley, rat, in vivo.
Method: (§1) Genistein and crystalline genistein sodium salt dihydrate were stored at room temperature under desiccant and protected from light. The dosing solutions were prepared fresh from powders on the day of dosing. The dosing solution for intravenous administration (IV) was prepared at 1 mg/mL (free acid) in 50:50 DMSO:saline. The dosing solutions for intraduodenal administration (ID) were prepared at 2 mg/mL (genistein free acid) in a 0.2% sodium carboxymethyl cellulose (Na CMC) solution in water.
(§2) The pharmacokinetics of genistein was evaluated in fasted male Sprague-Dawley rats. Each animal was fitted with a jugular vein cannula (JVC) for blood sampling. Animals intended for intravenous dosing were fitted with an additional JVC for dose administration. Animals intended for intraduodenal dosing were fitted with an intraduodenal cannula (IDC) for dose administration. Surgically modified animals were housed one per cage. All animals were supplied with a commercial rodent diet (LabDiet, Certified Rodent Diet #5002) ad libitum prior to study initiation. […]
(§3) Each blood sample was collected from the rats via a jugular vein cannula and placed into chilled polypropylene tubes containing sodium heparin as an anticoagulant. […] The total concentration of genistein in plasma samples were analyzed by LC-MS/MS after an overnight incubation with glucuronidase/arylsulfatase enzyme mixture. Pharmacokinetic parameters were calculated using the WinNonlin software.
(§4) An LC-MS/MS analytical method for the determination of genistein in rat plasma was developed. Prior to sample analysis, a standard curve was analyzed to determine the specificity, range, and linearity of the method. Total genistein in plasma samples was determined by pre-treating all samples with β-glucuronidase/arylsulfatase enzymes and incubating prior to analysis. […]
(§5) Individual plasma concentrations versus time data for genistein were subjected to non-compartmental analysis using the pharmacokinetic program WinNonlin v. […] Plasma concentrations below the limit of quantitation (10 ng/mL) were assigned a value of zero for PK analysis only.
Series [5] can be described thus: Comparative pharmacokinetic study of genistein and crystalline genistein sodium salt dihydrate, intraduodenal and intravenous. The note with it: rats.
Method: as §1, §2, §3, §4, §5
Series [6] can be described thus: SuperSol 1000 kinetic and equilibrium solubility assay.
Method: Since both compounds form suspensions in pure deionized H2O, physicochemical properties were assessed from solutions of 100% EtOH as well as mixtures of dH2O and EtOH, specifically, EtOH 50/50 (vol/vol) and EtOH/dH2O 75/25 (vol/vol) according to European Pharmacopeia guidelines 01/2008, Section 2.9.3., Table 2.9.3.5. • The following parameters were measured: • t[MSS] defined as: Time from start of analysis to Maximum Solubilization Speed (min) • C[MSS] defined as: Early kinetic solubility as expressed as concentration at Maximum Solubilization Speed (mg×I^−1) • C[Eq] defined as: Late kinetic solubility as expressed as concentration at Equilibrium Kinetic Solubility (mg×I^−1) • t[Eq] defined as: Time from start of analysis to Equilibrium Kinetic solubility (min) • ΔC [CEq−CMSS] defined as: Difference in concentration between Early and Late Kinetic Solubility as defined above (mg×I^−1) • Δt [CEq−CMSS] defined as: Difference in time between Early and Late Kinetic Solubility endpoints (min) • MSS defined as: Maximum Solubility Speed defined by C[MSS]/t[Mss] (mg×I^−1×min^−1) • ISI defined as: Intrinsic Solubility Index defined by ΔC [CEq−CMSS]/Δt [CEq−CMSS] • The higher the ISI value, the faster the solubilization and the stronger the relative contribution of the late, intrinsic kinetic equilibrium solubility C[Eq]. • KSR defined as: Kinetic Solubility ratio given by C[MSS]/C[Eq]. • The KSR is the numerical ratio indicator of the relative contribution of the early kinetic Solubility to the Overall Late Kinetic Equilibrium Solubility. The higher the KSR Value, the stronger the relative contribution of the early kinetic solubility C[MSS].
Series [7] can be described thus: Disproportionation study (slurry in distilled water ca. 48 hours, XRPD, pH of supernatant). Type of series: physicochemical. The note with it: slurried in distilled water for ca. 48 hours. The method, then:
A 50 mg sample of crystalline genistein sodium salt dihydrate was slurried in 250 μL distilled water for ca. 48 hours and then checked by XRPD for disproportionation. The pH of the supernatant was also measured using a Corning 240 pH meter. […] The pH of the supernatant after slurrying was 7.1.
A sample of crystalline genistein potassium salt dihydrate was slurried in distilled water for ca. 48 hours and then checked by XRPD for disproportionation. The pH of the supernatant was also measured using a Corning 240 pH meter. […] The pH of the supernatant liquid was 7.3 indicating no disproportionation.

Series [8] can be described thus: Aqueous solubility (slurry ca. 24 hours, filtered, HPLC-UV). Type of series: physicochemical. The following applies: aqueous buffer, thermodynamic from solid. The method, then:
Aqueous solubility was measured using the following protocol. Slurries of genistein and of crystalline genistein sodium dihydrate salt were made up in aqueous media in which pH was set at 4.5, 6.7, and 7.5, each slurry was shaken at ambient temperature for ca. 24 hours and then filtered using a 0.2 μm filter into a clean vial. The saturated solutions were then diluted and analyzed for API (genistein) content using N—Ac-DL-Methionine on a Chirobiotic T HPLC column and UV detector set at λmax=270 nm. The mobile phase was acetonitrile/water run in isocratic mode over a 30 minute period. The results are presented in Table 3, (BDL=below detection limits).
The aqueous solubility of crystalline genistein potassium salt dihydrate was measured using the protocol described in Example 1.7. Table 16 compares the aqueous solubilities of crystalline genistein potassium salt dihydrate with that of genistein.

`O=c1c(-c2ccc(O)cc2)coc2cc(O)cc(O)c12.[K]` [genistein potassium salt]: in series [1], the “stability, solid form change by XRPD” value is given as “crystallizes to form genistein potassium salt dihydrate”.
With `O.O.O=c1c(-c2ccc(O)cc2)coc2cc(O)cc(O)c12.[Na]` [genistein sodium salt dihydrate], the Solubility is below 10.6 mg/mL in series [2] (1,4-dioxane); 20.2 mg/mL in series [2] (Acetone/IPA (50:50)); below 10.4 mg/mL in series [2] (Acetonitrile (MeCN)); below 10.9 mg/mL in series [2] (Cyclohexane); below 10.8 mg/mL in series [2] (Dichloromethane (DCM)); below 9.7 mg/mL in series [2] (Diisopropylether (DIPE)). Besides, the Solubility in series [2] (Heptane) was below 9.9 mg/mL; in series [2] (Methanol (MeOH)) it was below 8.8 mg/mL; in series [2] (Methyl isobutyl ketone (MIBK)) it was below 9.0 mg/mL; in series [2] (Octanol) it was below 11 mg/mL; in series [2] (Tetrahydrofuran (THF)), below 10.4 mg/mL; in series [2] (Toluene), below 9.9 mg/mL. In addition, the Solubility in series [2] (Toluene/Dioxane (50:50)) was below 9.7 mg/mL. For the same molecule, the “maximum of water adsorbed (GVS)” value in series [3] was 45 wt %. Besides, in series [3], the “moisture change (GVS)” value was “ca. 2%”. Also, the “mean peak plasma concentration (Cmax) fold higher compared to genistein” value in series [4] was 4.2 fold. The “time after ID dosing at which maximum plasma concentration (Cmax) was observed” value in series [5] (intraduodenal dosing, mean plasma profile (FIG. 13)) is at most 15 min. Moreover, the “pharmacokinetic profile following IV dosing, compared with genistein” value in series [5] (intravenous 1 mg/kg) is given as “not significantly different”. Further, the “C[Eq]” value in series [6] (EtOH 100%) amounted to 11.20 mg×I^−1; in series [6] (EtOH/dH2O 50/50 (vol/vol)), 17.40 mg×I^−1; in series [6] (EtOH/dH2O 75/25 (vol/vol)) it was 15.86 mg×I^−1. Besides, the “C[MSS]” value in series [6] (EtOH 100%) was 10.85 mg×I^−1; in series [6] (EtOH/dH2O 50/50 (vol/vol)) it was 14.67 mg×I^−1; in series [6] (EtOH/dH2O 75/25 (vol/vol)) it was 11.20 mg×I^−1. In addition, the ISI was 0.07 in series [6] (EtOH 100%), 0.60 in series [6] (EtOH/dH2O 50/50 (vol/vol)) and 1.26 in series [6] (EtOH/dH2O 75/25 (vol/vol)). Also, the values for the KSR in series [6] (EtOH 100%), in series [6] (EtOH/dH2O 50/50 (vol/vol)) and in series [6] (EtOH/dH2O 75/25 (vol/vol)) were 0.97, 0.84 and 0.71, respectively. Further, the “KSR, assessment in words” value in series [6] (EtOH 100%), in series [6] (EtOH/dH2O 50/50 (vol/vol)) and in series [6] (EtOH/dH2O 75/25 (vol/vol)) was “excellent” in each case. In addition, the MSS in series [6] (EtOH 100%) stood at 36.90 mg×I^−1×min^−1; in series [6] (EtOH/dH2O 50/50 (vol/vol)), 20.66 mg×I^−1×min^−1; in series [6] (EtOH/dH2O 75/25 (vol/vol)), 37.33 mg×I^−1×min^−1. Further, the “MSS, assessment in words” value in series [6] (EtOH 100%), in series [6] (EtOH/dH2O 50/50 (vol/vol)) and in series [6] (EtOH/dH2O 75/25 (vol/vol)) was “excellent” throughout. Also, the “ΔC [C, − CMSS]” value in series [6] (EtOH 100%) is 0.35 mg×I^−1. Besides, the “ΔC [CEq − CMSS]” value in series [6] (EtOH/dH2O 50/50 (vol/vol)) turned out to be 2.73 mg×I^−1; in series [6] (EtOH/dH2O 75/25 (vol/vol)), 4.66 mg×I^−1. In addition, in series [7], the “disproportionation (XRPD)” value is reported as “No signs of disproportionation”. In addition, in series [7], the “pH of the supernatant after slurrying” value is recorded as 7.1.
Regarding `O=c1c(-c2ccc(O)cc2)coc2cc(O)cc(O)c12` [Genistein, 4′,5,7-trihydroxyisoflavone-5,7-dihydroxy-3-(4-hydroxyphenyl)-4H-1-benzopyran-4-one, reference compound], the Solubility in series [2] (1,4-dioxane) was below 10.3 mg/mL; in series [2] (Acetone/Water (50:50)) it was below 10.1 mg/mL; in series [2] (Acetonitrile (MeCN)), below 10.1 mg/mL; in series [2] (Cyclohexane), below 10.7 mg/mL; in series [2] (Dichloromethane (DCM)), below 10.3 mg/mL; in series [2] (Diisopropylether (DIPE)), below 10.6 mg/mL. The Solubility in series [2] (Ethanol (EtOH)) is below 10.8 mg/mL; in series [2] (Methanol (MeOH)), below 10.6 mg/mL; in series [2] (Methyl acetate (MeOAc)), below 10.3 mg/mL; in series [2] (Methyl isobutyl ketone (MIBK)), below 10.1 mg/mL; in series [2] (Methylethyl ketone (MEK)), below 10.8 mg/mL; in series [2] (Toluene) it was below 10.1 mg/mL. Moreover, the Solubility in series [2] (Toluene/Dioxane (50:50)) was below 10.1 mg/mL. For the same molecule, the “C[Eq]” value in series [6] (EtOH 100%) turned out to be 13.79 mg×I^−1; in series [6] (EtOH/dH2O 50/50 (vol/vol)) it was 12.87 mg×I^−1; in series [6] (EtOH/dH2O 75/25 (vol/vol)) it was 14.03 mg×I^−1. In addition, the “C[MSS]” value is recorded as 5.81 mg×I^−1 in series [6] (EtOH 100%), 7.43 mg×I^−1 in series [6] (EtOH/dH2O 50/50 (vol/vol)) and 8.52 mg×I^−1 in series [6] (EtOH/dH2O 75/25 (vol/vol)). Also, the values for the ISI in series [6] (EtOH 100%), in series [6] (EtOH/dH2O 50/50 (vol/vol)) and in series [6] (EtOH/dH2O 75/25 (vol/vol)) were 2.11, 1.55 and 1.49, respectively. Moreover, the figures for the KSR in series [6] (EtOH 100%), in series [6] (EtOH/dH2O 50/50 (vol/vol)) and in series [6] (EtOH/dH2O 75/25 (vol/vol)) were 0.42, 0.58 and 0.61, respectively. Moreover, the “KSR, assessment in words” value in series [6] (EtOH 100%) is “acceptable”; in series [6] (EtOH/dH2O 50/50 (vol/vol)) it was “acceptable”; in series [6] (EtOH/dH2O 75/25 (vol/vol)), “good”. The figures for the MSS in series [6] (EtOH 100%), in series [6] (EtOH/dH2O 50/50 (vol/vol)) and in series [6] (EtOH/dH2O 75/25 (vol/vol)) were 23.81 mg×I^−1×min^−1, 12.18 mg×I^−1×min^−1 and 19.67 mg×I^−1×min^−1, respectively. The “MSS, assessment in words” value in series [6] (EtOH 100%), in series [6] (EtOH/dH2O 50/50 (vol/vol)) and in series [6] (EtOH/dH2O 75/25 (vol/vol)) was “good” in each case. Moreover, the “ΔC [C, − CMSS]” value in series [6] (EtOH 100%) came out at 7.98 mg×I^−1. The “ΔC [CEq − CMSS]” value in series [6] (EtOH/dH2O 50/50 (vol/vol)) turned out to be 5.44 mg×I^−1; in series [6] (EtOH/dH2O 75/25 (vol/vol)), 5.51 mg×I^−1.
Turning to `O.O.O=c1c(-c2ccc(O)cc2)coc2cc(O)cc(O)c12.[K]` [genistein potassium salt dihydrate], in series [3], the “maximum of water adsorbed (GVS)” value was determined as 16 wt % and the “moisture change (GVS)” value was “ca. 3%”. In series [8] (Water/slurry pH 4.5, ambient temperature), this molecule came in with a solubility at 24 h of 0.04 mg/mL. Further, in series [8] (Water/slurry pH 6.7, ambient temperature), the solubility at 24 h turned out to be 0.057 mg/mL. This molecule also returned a solubility at 24 h in series [8] (Water/slurry pH 7.5, ambient temperature) of 0.069 mg/mL. For the same molecule, in series [7], the “disproportionation (XRPD)” value was “No signs of disproportionation” and the “pH of the supernatant after slurrying” value was found to be 7.3.
